# Reference: patent publication US20250161281A1, “EMOPAMIL-BINDING PROTEIN INHIBITORS AND USES THEREOF” (BIOGEN MA INC., priority 2022, published 2025)
# Target: T1, EBP (Homo sapiens, UniProt Q15125)
# T1 construct: HEK293T cells were utilized as the source of EBP enzyme; endogenous in cells; host or cells: HEK293T
# Test: EBP Functional Assay (EBP immunoaffinity LC-MS assay)
# Type: biochemical
# Settings: HEK293T cells as source of EBP enzyme; 30 min with inhibitor, then zymosterol-d5, 37° C. for 4 h; percent conversion by LC-APCI MRM MS
# Protocol: The EBP immunoaffinity (IA) LC-MS assay measures the potency of small molecule inhibitors of EBP by quantifying their concentration-dependent changes in the enzyme's substrate and product using liquid chromatography atmospheric pressure chemical ionization multiple reaction monitoring mass spectrometry (LC-APCI MRM MS). HEK293T cells were utilized as the source of EBP enzyme. The enzyme was incubated with the small molecule inhibitors at variable concentrations for 30 min. Deuterated form of EBP substrate, zymosterol-d5 (Avanti Polar Lipids, Cat #700068P-1 mg), was then added and the plate was incubated at 37° C. for 4 h. Finally, the sterol isomers were extracted and injected to LC-APCI MRM MS. MRM transition used for the quantification for both zymosterol and dihydrolathosterol (substrate and product of EBP enzymatic reaction, respectively) is 372.3-203.2, CE 30 and DP 80 in positive ion mode. Percent conversion of the zymosterol-d5 to dehydrolathosterol-d5 was used to derive IC50 curves. Tasin-1 (1′-[(4-Methoxyphenyl)sulfonyl]-4-methyl-1,4′-bipiperidine, CAS 792927-06-1) was used as the reference small molecule inhibitor. Percent conversion versus the compound concentration data were fit to the following 4-parameter logistic model to generate IC50 curves: […]
# T1 sequence (Q15125 whole entry): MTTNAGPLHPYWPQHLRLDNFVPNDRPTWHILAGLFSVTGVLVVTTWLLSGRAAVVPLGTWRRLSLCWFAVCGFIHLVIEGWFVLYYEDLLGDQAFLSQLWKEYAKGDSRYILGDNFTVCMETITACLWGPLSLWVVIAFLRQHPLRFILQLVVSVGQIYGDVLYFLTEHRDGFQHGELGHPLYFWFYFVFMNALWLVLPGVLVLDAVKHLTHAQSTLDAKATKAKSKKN
row,SMILES,IC50 [nM]
1,"Cc1nc(C(F)(F)F)ccc1S(=O)(=O)N1[C@@H]2CC[C@H]1C[C@H](NCC1(C)COC1)C2 (single isomer, unassigned) [Example 26]",< 50
2,"CC1CCN([C@@H]2C[C@H]3CC[C@@H](C2)N3S(=O)(=O)c2ccc3c(c2)CC(C)(C)C(=O)N3)CC1 [Example 5, 3,3-Dimethyl-6-(((1R,3s,5S)-3-(4-methylpiperidin-1-yl)-8-azabicyclo[3.2.1]octan-8-yl)sulfonyl)-3,4-dihydroquinolin-2(1H)-one]",< 50
3,"Cc1cc(C)c(S(=O)(=O)N2[C@@H]3CC[C@H]2C[C@H](CN2CCOCC2)C3)cn1 [Example 39, 4-(((1R,3s,5S)-8-((4,6-Dimethylpyridin-3-yl)sulfonyl)-8-azabicyclo[3.2.1]octan-3-yl)methyl)morpholine]",50 to 150
4,"Cc1nc(C(F)(F)F)ccc1S(=O)(=O)N1[C@@H]2CC[C@H]1C[C@@H](NC1CC3(COC3)C1)C2 (single isomer, unassigned) [Example 69]",50 to 150
5,"Cc1cc(S(=O)(=O)N2[C@@H]3CC[C@H]2C[C@@H](CN2CCOCC2)C3)n(C)n1 [Example 37, 4-(((1R,3r,5S)-8-((1,3-Dimethyl-1H-pyrazol-5-yl)sulfonyl)-8-azabicyclo[3.2.1]octan-3-yl)methyl)morpholine]",< 50
6,"O=S(=O)(c1ccc(OC(F)F)cc1)N1[C@@H]2CC[C@H]1C[C@H](NC[C@H]1C[C@@H](O)C1)C2 (single isomer, unassigned) [Example 63]",150 to 2000
7,"Cc1nc(C(F)(F)F)ccc1S(=O)(=O)N1[C@@H]2CC[C@H]1C[C@H](NC1CCOCC1)C2 [Example 75, (1R,3s,5S)-8-((2-Methyl-6-(trifluoromethyl)pyridin-3-yl)sulfonyl)-N-(tetrahydro-2H-pyran-4-yl)-8-azabicyclo[3.2.1]octan-3-amine]",150 to 2000
8,"CC(C)(O)CN[C@H]1C[C@H]2CC[C@@H](C1)N2S(=O)(=O)c1ccc(OC(F)F)cc1 [Example 77, 1-(((1R,3r,5S)-8-((4-(Difluoromethoxy)phenyl)sulfonyl)-8-azabicyclo[3.2.1]octan-3-yl)amino)-2-methylpropan-2-ol]",50 to 150
9,"Cc1ccnc(-n2cc(S(=O)(=O)N3[C@@H]4CC[C@H]3C[C@H](N3CCC(C)CC3)C4)cn2)c1 [Example 41, (1R,3s,5S)-3-(4-Methylpiperidin-1-yl)-8-((1-(4-methylpyridin-2-yl)-1H-pyrazol-4-yl)sulfonyl)-8-azabicyclo[3.2.1]octane]",< 50
10,"COCCC1CN(C2CC3CCC(C2)N3S(=O)(=O)c2ccc(OC(F)F)cc2)C1 (centres unmarked) [Example 54, 8-((4-(Difluoromethoxy)phenyl)sulfonyl)-3-(3-(2-methoxyethyl)azetidin-1-yl)-8-azabicyclo[3.2.1]octane]",150 to 2000
11,"CC(C)(O)CN[C@@H]1C[C@H]2CC[C@@H](C1)N2S(=O)(=O)c1ccc(OC(F)F)cc1 [Example 76, 1-(((1R,3s,5S)-8-((4-(Difluoromethoxy)phenyl)sulfonyl)-8-azabicyclo[3.2.1]octan-3-yl)amino)-2-methylpropan-2-ol]",150 to 2000
12,"O=S(=O)(c1ccc(OC(F)F)cc1)N1C2CCC1CC(NC1CCOCC1)C2 (centres unmarked) [Example 73, 8-((4-(Difluoromethoxy)phenyl)sulfonyl)-N-(tetrahydro-2H-pyran-4-yl)-8-azabicyclo[3.2.1]octan-3-amine]",< 50
13,"O=S(=O)(c1ccc(OC(F)F)cc1)N1C2CCC1CC(NC[C@H]1C[C@H]1CO)C2 (mixture of isomers) [Example 56, rac-((1R,2S)-2-(((8-((4-(Difluoromethoxy)phenyl)sulfonyl)-8-azabicyclo[3.2.1]octan-3-yl)amino)methyl)cyclopropyl)methanol]",150 to 2000
14,"CC1CCN([C@@H]2C[C@H]3CC[C@@H](C2)N3S(=O)(=O)c2ccc(OC(F)F)cc2)CC1 [Example 21, (1R,3s,5S)-8-((4-(difluoromethoxy)phenyl)sulfonyl)-3-(4-methylpiperidin-1-yl)-8-azabicyclo[3.2.1]octane]",< 50
15,"O=S(=O)(c1ccc(OC(F)F)cc1)N1[C@@H]2CC[C@H]1C[C@H](NCC1(O)CCOCC1)C2 [Example 18, 4-((((1R,3s,5S)-8-((4-(Difluoromethoxy)phenyl)sulfonyl)-8-azabicyclo[3.2.1]octan-3-yl)amino)methyl)tetrahydro-2H-pyran-4-ol]",< 50
16,"O=S(=O)(c1ccc(OC(F)F)cc1)N1[C@@H]2CC[C@H]1C[C@@H](NCC1CCOCC1)C2 [Example 32, (1R,3r,5S)-8-((4-(Difluoromethoxy)phenyl)sulfonyl)-N-((tetrahydro-2H-pyran-4-yl)methyl)-8-azabicyclo[3.2.1]octan-3-amine]",< 50
17,"CC1CCN([C@@H]2C[C@H]3CC[C@@H](C2)N3S(=O)(=O)c2c3c(nn2C)CCOC3)CC1 [Example 9, 2-Methyl-3-(((1R,3s,5S)-3-(4-methylpiperidin-1-yl)-8-azabicyclo[3.2.1]octan-8-yl)sulfonyl)-2,4,6,7-tetrahydropyrano[4,3-c]pyrazole]",< 50
18,"CC1(CNC2C[C@H]3CC[C@@H](C2)N3S(=O)(=O)c2ccc(OC(F)F)cc2)COC1 (mixture of isomers) [Example 15, 8-((4-(Difluoromethoxy)phenyl)sulfonyl)-N-((3-methyloxetan-3-yl)methyl)-8-azabicyclo[3.2.1]octan-3-amine]",< 50
19,"Cc1nc(C(F)(F)F)ccc1S(=O)(=O)N1[C@@H]2CC[C@H]1C[C@@H](NCC1CCOCC1)C2 (single isomer, unassigned) [Example 25]",< 50
20,"CN(C1CCOCC1)[C@@H]1C[C@H]2CC[C@@H](C1)N2S(=O)(=O)c1ccc(OC(F)F)cc1 [Example 66, (1R,3s,5S)-8-((4-(difluoromethoxy)phenyl)sulfonyl)-N-methyl-N-(tetrahydro-2H-pyran-4-yl)-8-azabicyclo[3.2.1]octan-3-amine]",150 to 2000
21,"Cc1ccc(S(=O)(=O)N2[C@@H]3CC[C@H]2C[C@H](N2CCC(C)CC2)C3)c(C)n1 [Example 47, (1R,3s,5S)-8-((2,6-Dimethylpyridin-3-yl)sulfonyl)-3-(4-methylpiperidin-1-yl)-8-azabicyclo[3.2.1]octane]",50 to 150
22,"CN(C1CCOCC1)[C@H]1C[C@H]2CC[C@@H](C1)N2S(=O)(=O)c1ccc(OC(F)F)cc1 [Example 65, (1R,3r,5S)-8-((4-(difluoromethoxy)phenyl)sulfonyl)-N-methyl-N-(tetrahydro-2H-pyran-4-yl)-8-azabicyclo[3.2.1]octan-3-amine]",< 50
23,"COc1cc(F)c(S(=O)(=O)N2[C@@H]3CC[C@H]2C[C@H](N2CCC(C)CC2)C3)c(F)c1 [Example 43, (1R,3s,5S)-8-((2,6-Difluoro-4-methoxyphenyl)sulfonyl)-3-(4-methylpiperidin-1-yl)-8-azabicyclo[3.2.1]octane]",50 to 150
24,"O=S(=O)(c1ccc(OC(F)F)cc1)N1C2CCC1CC(N1CC3CCC(C3)C1)C2 (centres unmarked) [Example 58, 8′-((4-(Difluoromethoxy)phenyl)sulfonyl)-3,8′-diaza-3,3′-bi(bicyclo[3.2.1]octane)]",< 50
25,"O=S(=O)(c1ccc(OC(F)F)cc1)N1C2CCC1CC(NCC1CC(O)C1)C2 (single isomer, unassigned) [Example 62]",50 to 150
26,"Cc1cc(S(=O)(=O)N2[C@@H]3CC[C@H]2C[C@H](CN2CCOCC2)C3)n(C)n1 [Example 36, 4-(((1R,3s,5S)-8-((1,3-Dimethyl-1H-pyrazol-5-yl)sulfonyl)-8-azabicyclo[3.2.1]octan-3-yl)methyl)morpholine]",< 50
